Data published in patent US20150342954A1, “2-BENZYL, 3-(PYRIMIDIN-2-YL) SUBSTITUTED PYRAZOLES USEFUL AS SGC STIMULATORS” (IRONWOOD PHARMACEUTICALS, INC., priority 2011, published 2015).
Where two headings read alike, the source gives them in different places.

Experiments:
[1] = biological target: T1, Human soluble guanylate cyclase enzyme (hsGC) (Homo sapiens, UniProt Q02108+Q02153); experiment: Purified human sGC enzyme activity assay (without SNP); type: biochemical; settings: compound at 30 μM, absence of SNP, fold over DMSO control
T1 construct: purchased Enzo Inc. ALX-201-177
T1 sequence (Q02153 1-619): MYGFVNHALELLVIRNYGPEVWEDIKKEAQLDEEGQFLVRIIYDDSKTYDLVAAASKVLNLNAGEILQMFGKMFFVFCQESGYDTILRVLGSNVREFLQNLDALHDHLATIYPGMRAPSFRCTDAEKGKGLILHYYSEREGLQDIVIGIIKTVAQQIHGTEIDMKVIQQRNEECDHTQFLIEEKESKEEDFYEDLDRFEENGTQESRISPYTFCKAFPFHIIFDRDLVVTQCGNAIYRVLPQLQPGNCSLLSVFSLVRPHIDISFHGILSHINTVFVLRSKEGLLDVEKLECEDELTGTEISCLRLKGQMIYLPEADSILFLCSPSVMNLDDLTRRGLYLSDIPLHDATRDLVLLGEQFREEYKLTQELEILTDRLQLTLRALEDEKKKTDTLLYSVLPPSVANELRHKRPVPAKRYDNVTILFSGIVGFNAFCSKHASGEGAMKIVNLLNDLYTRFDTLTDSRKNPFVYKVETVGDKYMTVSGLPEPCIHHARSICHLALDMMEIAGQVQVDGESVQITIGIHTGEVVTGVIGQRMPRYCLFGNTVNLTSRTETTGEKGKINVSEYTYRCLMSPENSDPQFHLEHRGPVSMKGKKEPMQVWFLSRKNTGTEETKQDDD
T1 sequence (Q02108 1-690): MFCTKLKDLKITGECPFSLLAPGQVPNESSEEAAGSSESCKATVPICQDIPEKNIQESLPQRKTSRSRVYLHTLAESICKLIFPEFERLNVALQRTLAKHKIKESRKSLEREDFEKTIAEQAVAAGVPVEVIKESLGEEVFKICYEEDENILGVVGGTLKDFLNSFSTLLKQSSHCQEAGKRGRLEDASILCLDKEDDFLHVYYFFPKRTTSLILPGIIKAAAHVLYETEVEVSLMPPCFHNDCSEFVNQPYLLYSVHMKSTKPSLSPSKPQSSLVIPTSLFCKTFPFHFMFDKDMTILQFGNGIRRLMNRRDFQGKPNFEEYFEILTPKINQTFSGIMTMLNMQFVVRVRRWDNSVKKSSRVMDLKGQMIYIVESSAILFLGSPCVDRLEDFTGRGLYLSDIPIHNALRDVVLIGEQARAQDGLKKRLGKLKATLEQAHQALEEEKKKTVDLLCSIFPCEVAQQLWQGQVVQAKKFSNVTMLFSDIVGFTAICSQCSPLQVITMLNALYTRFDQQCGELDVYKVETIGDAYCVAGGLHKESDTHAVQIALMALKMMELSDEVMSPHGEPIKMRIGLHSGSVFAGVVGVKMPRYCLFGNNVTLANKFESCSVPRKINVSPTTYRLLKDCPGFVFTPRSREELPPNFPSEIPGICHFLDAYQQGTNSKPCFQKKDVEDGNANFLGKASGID
Procedure: Biological Activity Measurements by the Purified Human sGC Enzyme Activity Assay
(§1) Human soluble guanylate cyclase enzyme (hsGC) obtained from Enzo Inc. (P/N: ALX-201-177) was used to evaluate the activity of test compounds. The assay reactions contained 0.1 M Tris (pH 8.0), 0.5 mg/mL BSA (pH 8.0), 2 mM DTT, 2 mM MgCl2, 300 μM GTP, 1 mM 3-isobutyl-1-methylxanthine (IBMX) and 5 ng human soluble guanylate cyclase enzyme. Test compounds in DMSO were then added (2 μL, 10 or 30 μM final concentration) and incubated (200 μL, 96-well plate format) at 37° C. for 30 minutes. The controls were carried out using 2 μL DMSO. After the 30 minute incubation, the reaction was stopped with the addition of 200 μl of cold methanol. The plate was then centrifuged at 3,200 rpm for 10 minutes at room temperature. Supernatants (200 μL) were collected and transferred to a new 96 well plate for analysis.
(§2) An 8 point cGMP (Sigma-Aldrich P/N: G6129) standard curve was prepared in assay buffer ranging from 0.156-20 μM. Samples for the cGMP standard curve were then diluted with an equal volume of methanol resulting in final cGMP concentrations of 0.078-10 μM.
(§3) The cGMP standard curve was generated using GraphPad Prism Software.
(§4) Calculations: Specific Activity was determined by the amount of cGMP formed (nmoles) per mg of sGC per min. Enzyme “fold-change” was calculated by dividing Specific Activity for test compounds by Specific Activity of DMSO controls.

[2] = biological target: T2, soluble guanylate cyclase (sGC) (Homo sapiens, UniProt Q02108+Q02153); experiment: sGC-HEK-cGMP assay (run with SNP incubation); type: cell-based; settings: for Emax: 10 μM SNP, 100% = 30 μM BAY 41-2272 with 10 μM SNP, read-out: HEK assay Emax-unconstrained (Percent); for HEK MEC-10: concentration that would elicit 10% of the Emax in the presence of 10 μM SNP; for EC50: in the presence of 10 μM SNP
T2 construct: endogenously expressing soluble guanylate cyclase (sGC); endogenous in cells; host or cells: HEK293
T2 sequence (Q02153 1-619): T1 sequence (Q02153 1-619)
T2 sequence (Q02108 1-690): T1 sequence (Q02108 1-690)
Summary of the method: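 HEK293 cells with endogenous sGC were pre-treated 15 min at 37 °C with 0.5 mM IBMX, then exposed to test compound plus sodium nitroprusside for 10 min at 37 °C. Cells were lysed in 0.1 M HCl (4 °C, 30 min), and cGMP was quantified by LC/MS against a standard curve. EC50 values came from concentration-response curves.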

[3] = biological target: T1, Human soluble guanylate cyclase enzyme (hsGC); experiment: Purified human sGC enzyme synergy assay in the presence of 1 μM sodium nitroprusside (SNP); type: biochemical; settings: compound at 30 μM, presence of 1 μM SNP
Procedure: as §1, §2, §3, §4
Biological Measurement by the Purified Human sGC Enzyme Synergy Performed in the Presence of Sodium Nitroprusside (SNP), a Nitric Oxide Donor
Enzyme assays were performed as described above, but was done in the absence or presence of 1 μM sodium nitroprusside (SNP).

[4] = Table 3B, top of concentration-response curve not fitted to 100%
[5] = Table 3E, read-out: HEK assay EC50
[6] = top of concentration-response curve not fitted to 100%, Table 3E, read-out: HEK assay EC50-unconstrained
[7] = Table 3A, top of concentration-response curve not fitted to 100%
[8] = Table 3D, read-out: HEK assay EC50
[9] = top of concentration-response curve not fitted to 100%, Table 3D, read-out: HEK assay EC50-unconstrained

Structure (SMILES) | Enzyme Activity (increase at 30 μM without SNP) ([1]; Table 5B) | Emax [2, 4] [%] | EC50 [2, 6] [µM] | Enzyme Activity (increase at 30 μM with SNP) ([3]; Table 5B) | Enzyme Activity (increase at 30 μM without SNP) ([1]; Table 5A) | Emax [2, 7] [%] | HEK MEC-10 ([2]; Table 3D) | EC50 [2, 8] [µM] | EC50 [2, 9] [µM] | Enzyme Activity (increase at 30 μM with SNP) ([3]; Table 5A) | further results
N#Cc1cc(-c2ncc(F)c(=O)[nH]2)nn1Cc1ccccc1F [Compound 74] | B (2 to <5 fold increase) | 40 to 60 | 1 to 5 | C (5 to <10 fold increase) | – | – | – | – | – | – | HEK MEC-10 ([2]; Table 3E): C (0.1 to <1 μM); EC50 [2, 5]: 40 to 60 µM
Cc1cccc(Cn2nc(-c3ncc(F)c(O)n3)cc2-c2ccon2)c1F [Compound 86] | C (5 to <10 fold increase) | 60 to 80 | 1 to 5 | D (10 or <20 fold increase) | – | – | – | – | – | – | –
Oc1nc(-c2cc(-c3ccon3)n(Cc3ccccc3F)n2)ncc1Sc1ccccc1 [Compound 39, 2-(1-(2-fluorobenzyl)-5-(isoxazol-3-yl)-1H-pyrazol-3-yl)-5-(phenylthio)pyrimidin-4-ol] | – | – | – | – | D (10 or <20 fold increase) | 100 to 120 | A (0.001 to <0.01 μM) | < 20 | 0.01 to 0.5 | E (20 to 30 fold increase) | –
Fc1ccccc1Cn1nc(-c2ncccn2)c(F)c1-c1ccon1 [Compound 34] | – | – | – | – | B (2 to <5 fold increase) | 20 to 40 | D (1 to <10 μM) | 60 to 100 | 1 to 5 | D (10 or <20 fold increase) | –
Fc1ccccc1Cn1nc(-c2ncc3[nH]cnc3n2)cc1-c1ccon1 [Compound 110] | – | – | – | – | – | – | – | – | – | – | Enzyme Activity (increase at 30 μM without SNP) ([1]; Table 5C): D (10 or <20 fold increase); Emax ([2]; Table 3C, top of concentration-response curve not fitted to 100%): 80 to 100%; HEK MEC-10 ([2]; Table 3F): C (0.1 to <1 μM); EC50 ([2]; Table 3F, read-out: HEK assay EC50): < 20 µM; EC50 ([2]; top of concentration-response curve not fitted to 100%, Table 3F, read-out: HEK assay EC50-unconstrained): 1 to 5 µM; Enzyme Activity (increase at 30 μM with SNP) ([3]; Table 5C): D (10 or <20 fold increase)
Nc1nc(-c2cc(-c3ccon3)n(Cc3cccc(F)c3F)n2)ncc1NC(=O)c1ccc(F)cc1 [Compound 88] | F (>30 fold increase) | 80 to 100 | 1 to 5 | E (20 to 30 fold increase) | – | – | – | – | – | – | –
NNc1nc(-c2cc(-c3ccon3)n(Cc3ccccc3F)n2)ncc1F [Compound 56] | – | – | – | – | C (5 to <10 fold increase) | 60 to 80 | B (0.01 to <0.1 μM) | < 20 | 0.5 to 1 | D (10 or <20 fold increase) | –
CC1(C(=O)Nc2cnc(-c3cc(-c4ncco4)n(Cc4ccccc4F)n3)nc2N)CC1(F)F (centres unmarked) [Compound 55] | – | – | – | – | C (5 to <10 fold increase) | 100 to 120 | C (0.1 to <1 μM) | < 20 | 1 to 5 | F (>30 fold increase) | –
Oc1nc(-c2cc(-c3ccon3)n(Cc3ccccc3F)n2)ncc1-c1ccccn1 [Compound 43] | – | – | – | – | B (2 to <5 fold increase) | 40 to 60 | C (0.1 to <1 μM) | < 20 | 1 to 5 | D (10 or <20 fold increase) | –
Oc1nc(-c2cc(-c3ccon3)n(Cc3ccccc3F)n2)ncc1-c1ccsc1 [Compound 45] | – | – | – | – | A (no increase to <2 fold increase) | 10 to 20 | E (10 to 50 μM) | 100 to 300 | 5 to 10 | B (2 to <5 fold increase) | –
CSc1cnc(-c2cc(-c3ccon3)n(Cc3ccccc3F)n2)nc1O [Compound 29, 2-(1-(2-fluorobenzyl)-5-(isoxazol-3-yl)-1H-pyrazol-3-yl)-5-(methylthio)pyrimidin-4-ol] | – | – | – | – | B (2 to <5 fold increase) | 40 to 60 | E (10 to 50 μM) | < 20 | 5 to 10 | D (10 or <20 fold increase) | –
Oc1ccnc(-c2cc(-c3ccon3)n(Cc3cccc(F)c3F)n2)n1 [Compound 84] | C (5 to <10 fold increase) | 60 to 80 | 1 to 5 | D (10 or <20 fold increase) | – | – | – | – | – | – | HEK MEC-10 ([2]; Table 3E): B (0.01 to <0.1 μM); EC50 [2, 5]: 60 to 100 µM
